Non-standard residues stand in square brackets, D forms with d. Residues, ends and D or L forms follow the SMILES beside them. No end group written: not given here. 2Nal = N[C@@H](Cc1ccc2ccccc2c1)C(=O)O; 2Thi = N[C@@H](Cc1cccs1)C(=O)O; β3hL = CC(C)C[C@H](N)CC(=O)O; Nle = CCCC[C@H](N)C(=O)O; βAla = NCCC(=O)O Some results are limits rather than exact numbers.

One test relates to SaOS-2/B10 cells. It counts as binding. The following applies: 2 h. The protocol: SaOS-2/B10 cells were maintained in RPMI1640 medium supplemented with 10% fetal bovine serum (FBS) and 2 mM glutamine at 37° C. in a humidified atmosphere of 5% CO2 in air. The medium was changed every three to four days, and the cells were subcultured every week by trypsinization.
SaOS-2/B10 cells were maintained for four days after they had reached confluence. The medium was replaced with 5% FBS […] medium and incubated for 2 hrs at room temperature with 10×10^4 cpm mono-^125I-[Nle^8,18,Tyr^34(3-^125I)]bPTH(1-34)NH2 in the presence or absence of a competing tested polypeptide of the invention. The cells were washed four times with ice-cold PBS and lysed with 0.1M NaOH, and the radioactivity associated with the cells was counted in a scintillation counter. Synthesis of the radiolabelled [Nle^8,18,Tyr^34(3-^125I)]bPTH(1-34)NH2 was carried out as described in Goldman M. E., et al., Endocrinology, (1988), 123, 1468-1475.
The binding assay was conducted on the polypeptides of the invention having SEQ ID NO:5, 6, 7, 9, 10, 11, and 12.

Test [1] relates to adenylate cyclase in SaOS-2/B10 cells. Kind of test: Stimulation of adenylate cyclase activity in SaOS-2/B10 cells. The class given is cell-based. The following applies: 1 mM IBMX, 5 min incubation, read-out: EC50 (half maximal stimulation of adenylate cyclase). The protocol: The adenylate cyclase activity induced by each of the tested polypeptides of the invention was also measured in SaOS-2/B 10 cells as described previously (Rodain et al., J. Clin. Invest. (1983) 72,1511; Goldman, et al., Endocrinology (1988) 123, 1468). Conflúnt SaOS-2/B10 cells in 24 wells plates were incubated with 0.5 μCi [^3H]adenine (26.9 Ci/mmol, New England Nuclear, Boston, Mass. in fresh medium at 37° C. for 2 hrs. and washed twice with Hank's solution. The cells were treated with 1 mM IBMX (isobutylmethylxanthine, Sigma, St. Louis, Mo.) in fresh medium for 15 min. and a tested PTH analog was added to the medium to incubate for 5 min. The reaction was stopped by the addition of 1.2M TCA followed by sample neutralization with 4N KOH. Cyclic AMP was isolated by the two-column chromatographic method (Salomon, et al., Anal. Biochem. (1974) 58, 541). The radioactivity was counted in a scintillation counter (Liquid scintillation counter 2200CA, PACKARD, Downers Grove, Ill.).

In test [2] the target is T1, recombinant hPTH1-receptor (Homo sapiens, UniProt Q03431).
T1 construct: expressed in transfected cells
T1 sequence (Q03431 27-593): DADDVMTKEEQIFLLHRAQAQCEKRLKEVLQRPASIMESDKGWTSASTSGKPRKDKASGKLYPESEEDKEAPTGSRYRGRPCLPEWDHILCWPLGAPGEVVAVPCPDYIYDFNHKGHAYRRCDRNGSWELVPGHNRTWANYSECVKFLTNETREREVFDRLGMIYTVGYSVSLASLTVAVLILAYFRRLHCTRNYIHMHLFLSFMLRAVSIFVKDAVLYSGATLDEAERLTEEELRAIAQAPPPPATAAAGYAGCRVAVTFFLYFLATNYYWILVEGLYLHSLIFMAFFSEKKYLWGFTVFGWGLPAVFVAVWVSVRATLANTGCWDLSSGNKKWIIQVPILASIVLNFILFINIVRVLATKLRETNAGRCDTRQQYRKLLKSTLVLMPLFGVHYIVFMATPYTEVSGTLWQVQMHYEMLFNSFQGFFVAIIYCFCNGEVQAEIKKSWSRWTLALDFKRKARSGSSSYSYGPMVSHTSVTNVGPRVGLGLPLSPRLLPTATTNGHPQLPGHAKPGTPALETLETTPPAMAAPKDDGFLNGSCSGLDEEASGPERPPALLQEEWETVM
Kind of test: Radioreceptor competition binding, 125I-PTH(1-34), HEK293/C21 cells. The following applies: 125I-PTH(1-34) ~0.1 nM, 2 h at room temperature. How it is done:
Human embryonic kidney (HEK293) cells, stably transfected with recombinant hPTH1-receptor (HEK293/C21 cell line, ˜400,000 receptors/cell) (Pines, M., Adams, A. E., Stueckle, S., Bessalle, R., Rashti-Behar, V., Chorev, M., Rosenblatt, M., and Suva, L. J. Endocrinology 1994, 135, 1713-1716), were maintained in D-MEM medium supplemented with 10% fetal bovine serum and […] glutamine at 37° C. in a humidified atmosphere of 95% air/5% CO2. The medium was changed every 3-4 days, and the cells were subcultured every week. Ligand stimulated adenylyl cyclase activity and radioreceptor competition binding assays were performed on confluent cultures, 1-3 days after a change of medium.
[Nle^8,18,Nal^23,Tyr^34]bPTH(1-34)-NH2 was radioiodinated and the crude material was purified as previously described (Roubini, E., Duong, L. T., Gibbons, S. W., Leu, C. T., Caulfield, M. P., Chorev, M., and Rosenblatt, M. Biochemistry 1992, 31, 4026-4033). […] The pure mono-radioiodinated peptide was isolated on an analytical RP-HPLC Vydac Protein C18 column (The Separation Group, Hesperia, Calif.) employing a linear gradient of 36-42% B in A for 30 min (A, 0.1% TFA in water; B, 0.1% TFA in acetonitrile) at a flow rate of 1 mL/min, and monitored at 220 nm. […]

The test system of test [3] is PTH-stimulated adenylate cyclase. The following applies: background, literature report; cited from earlier work.
The subject of the next test is renal PTH receptors. The following applies: background, literature report; cited from earlier work.

Broadly, the IC50 is the concentration at which inhibition is half-maximal. The term EC50 denotes the concentration giving half of the maximal effect. With `CC[C@H](C)[C@H](NC(=O)[C@H](CO)NC(=O)[C@H](CCCCN)NC(=O)CNC(=O)[C@H](CCCCN)NC(=O)[C@H](CC(=O)O)NC(=O)[C@H](Cc1c[nH]cn1)NC(=O)[C@H](CC(C)C)NC(=O)[C@H](CC(C)C)NC(=O)[C@H](CCC(N)=O)NC(=O)[C@H](Cc1c[nH]cn1)NC(=O)[C@H](CCC(=O)O)NC(=O)[C@H](CO)NC(=O)[C@@H](NC(=O)[C@H](C)N)C(C)C)C(=O)N[C@@H](CCC(N)=O)C(=O)N[C@@H](CC(=O)O)C(=O)N[C@@H](CC(C)C)C(=O)N[C@@H](CCCNC(=N)N)C(=O)N[C@@H](CCCNC(=N)N)C(=O)N[C@@H](CCCNC(=N)N)C(=O)N[C@@H](CCC(=O)O)C(=O)N[C@@H](CC(C)C)C(=O)N[C@@H](CC(C)C)C(=O)N[C@@H](CCC(=O)O)C(=O)N[C@@H](CCCCN)C(=O)N[C@@H](CC(C)C)C(=O)N[C@@H](CC(C)C)C(=O)N[C@@H](CCC(=O)O)C(=O)N[C@@H](CCCCN)C(=O)N[C@@H](CC(C)C)C(=O)N[C@@H](Cc1cccs1)C(=O)N[C@H](C(=O)N[C@@H](C)C(N)=O)[C@@H](C)O` [SEQ ID NO: 9, [Glu^22,25,29,Leu^23,28,31,Lys^26,30,Thi^32]hPTHrP(1–34)NH2] (H-AVSEHQLLHDKGKSIQDLRRRELLEKLLEKL[2Thi]TA-NH2; N-terminus assumed), in the test on SaOS-2/B10 cells, inhibition was half-maximal at 90 nM (IC50). For the same compound, the EC50 in test [1] amounted to 10 nM.
On to `CCCC[C@H](NC(=O)[C@H](Cc1ccccc1)NC(=O)[C@H](CCC(N)=O)NC(=O)[C@@H](NC(=O)[C@H](CCC(=O)O)NC(=O)[C@H](CO)NC(=O)[C@@H](NC(=O)[C@H](C)N)C(C)C)[C@@H](C)CC)C(=O)N[C@@H](Cc1c[nH]cn1)C(=O)N[C@@H](CC(N)=O)C(=O)N[C@@H](CC(C)C)C(=O)NCC(=O)N[C@@H](CCCCN)C(=O)N[C@@H](Cc1c[nH]cn1)C(=O)N[C@@H](CC(C)C)C(=O)N[C@@H](CO)C(=O)NCCC(=O)N[C@H](CC(=O)NCCC(=O)N[C@@H](CCCNC(=N)N)C(=O)N[C@H](C(=O)N[C@@H](CCC(=O)O)C(=O)N[C@@H](Cc1ccc2ccccc2c1)C(=O)N[C@@H](CC(C)C)C(=O)N[C@@H](CCCNC(=N)N)C(=O)N[C@@H](CCCCN)C(=O)N[C@@H](CCCCN)C(=O)N[C@@H](CC(C)C)C(=O)N[C@@H](CCC(N)=O)C(=O)N[C@@H](CC(=O)O)C(=O)N[C@H](C(=O)N[C@@H](Cc1c[nH]cn1)C(=O)N[C@@H](CC(N)=O)C(=O)N[C@@H](Cc1ccc(O)cc1)C(N)=O)C(C)C)C(C)C)CC(C)C` [SEQ ID NO: 17, [Nle^8,β-Ala^17,19,β-hLeu^18,Nal^23,Tyr^34]bPTH(1–34)NH2] (H-AVSEIQF[Nle]HNLGKHLS[βAla][β3hL][βAla]RVE[2Nal]LRKKLQDVHNY-NH2; N-terminus assumed), for which the IC50 in test [2] was more than 1000 nM.
In the case of “AVSEHQLLHDKGKSIQDLRRREFLEKLIEKIHTA-NH2 [SEQ ID NO: 12, [Glu^22,25,29,Lys^26,30]hPTHrP(1–34)NH2]”, it took 5.5 nM to reach half-maximal inhibition in the test on SaOS-2/B10 cells (IC50). The concentration giving a half-maximal response (EC50) in test [1] amounted to 0.42 nM.
The matching figures for “AVSEHQLLHDKGKSIQDLRRRELLEKLLELLHTA-NH2 [SEQ ID NO: 10, [Glu^22,25,29,Leu^23,28,30,31,Lys^26]hPTHrP(1–34)NH2]”: 70 nM and 5 nM.
The matching figures for “AVSEHQLLHDKGKSIQDLRRRFLLHHLLAELHTA-NH2 [SEQ ID NO: 11, [Leu^23,28,31]hPTHrP(1–34)NH2]”: 18.3 nM and 0.74 nM.
Take “PTH(1 -25) (SVSEIQLMHNLGKHLNSMERVEWLR; Parathyroid hormone; UniProt P01270 32-56, looked up, fragment) [carboxyl-terminally truncated PTH fragment of residues 1-25]”: the “activity of carboxyl-terminally truncated PTH” value in test [3] is “essentially inactive”.
“PTH(25-34) (RKKLQDVHNF; Parathyroid hormone; UniProt P01270 56-65, looked up, fragment) [PTH fragment of residues 25-34]”: the “receptor binding / affinity for renal PTH receptors” value with renal PTH receptors was “weak receptor binding activity”.
Take “SVSEIQLMHNLGKHLNSMERVELLEKLLEKLHNF-NH2 [SEQ ID NO: 5, [Glu^25,29,Leu^23,27,31,Lys^30]hPTH(1–34)NH2]”: in the test with SaOS-2/B10 cells, the IC50 amounted to 216 nM. The half-maximal effective concentration (EC50) in test [1] was determined as 24 nM.
The matching figures for “SVSEIQLMHNLGKHLNSMERVELLRKLLQDLHNF-NH2 [SEQ ID NO: 7, [Leu^23,27,31]hPTH(1–34)NH2]”: 41 nM and 1.12 nM.
The matching figures for “SVSEIQLMHNLGKHLNSMERVEWLEKKLEKVHNF-NH2 [SEQ ID NO: 6, [Glu^25,29,Lys^30]hPTH(1–34)NH2]”: 30 nM and 25.5 nM.
For the compound [Tyr^34]bPTH(7-34)NH2, the “receptor binding / affinity for renal PTH receptors” value in the test on renal PTH receptors is on record as “moderate affinity”. Further, in test [3], the agonist activity entry is reported as “does not have any agonist activity”.

The record behind these values is patent US7799757B2, “Analogs of parathyroid hormone and PTH-related protein as bone anabolic agents” (priority 2002, dated 2010).
